The assay relates to p27 in melanoma cells. Description: Immunofluorescence of p27. The format is cell-based, mouse. The conditions noted are these: cells treated with methyl sulfone. On the procedure:
Cells were grown on 12 mm coverslips until 60 to 70% confluent. 2% methyl sulfone was added to half the coverslips and normal medium to other half. After 24, 48, and 96 hours, coverslips were placed in porcelain holders and incubated in 37° C. PBS for 30 seconds followed by incubation in 37° C. 4% paraformaldehyde for 10 minutes. Cells were washed in PBS for 5 minutes followed by incubation in 0.2% Triton X-100/PBS for 5 minutes at room temperature. Chicken serum ([…] in 1 ml PBS) was added to cells for 30 minutes. Cells were washed 3 times in 0.2% Triton X-100/PBS, 3 minutes each. Rabbit anti-p27 polyclonal antibody, (Santa Cruz Biotech, Calif.) was diluted 1/250 in 1% BSA/PBS and added to coverslips for 1.5 hours. Cells were washed 5 times in 0.2% Triton X-100/PBS, 3 minutes each. Secondary antibody, Alexa Fluor 488 chicken anti-rabbit antibody, was diluted 1/1000 in 1% BSA/PBS and added to coverslips for 30 minutes in the dark. Cells were washed five times in 0.2% Triton X-100/PBS, three minutes each. Cells were washed twice in PBS for two minutes each and placed in DAPI, diluted 1/1000 in PBS, for 5 minutes. Cells were washed in PBS for one minute. SlowFade was added to slides, coverslips were placed face down and sealed with nail polish. […]

Take methyl sulfone: the “localization of p27” value is “localized in the nuclei”.
